# Results from US20220118121A1, “PROSTATE SPECIFIC MEMBRANE ANTIGEN (PSMA) LIGANDS WITH IMPROVED TISSUE SPECIFICITY” (Ruprecht-Karls-Universität Heidelberg, priority 2019, published 2022).
# Where a SMILES comes first, the peptide text is derived from it. [ ]: non-standard residue; d: D form. The star is where a group is joined. DOTA = O=C(O)CN1CCN(CC(=O)O)CCN(CC(=O)*)CCN(CC(=O)O)CC1; EuK = O=C(O)CC[C@H](NC(=O)N[C@@H](CCCCN*)C(=O)O)C(=O)O; 2Nal = N[C@@H](Cc1ccc2ccccc2c1)C(=O)O; Trx = NC[C@H]1CC[C@H](C(=O)O)CC1
# Experiments:
# [1] = tested on: prostate cancer; details: cited from earlier work
# [2] = tested on: PSMA+ LNCaP cells; assay: cell surface binding and internalization of radiolabeled compounds; type: cell-based; details: for Specific Cell Surface Binding / Specific Internalization / Cell Surface binding / Internalization: 68Ga-labeled
# Description: (§1) PSMA^+ LNCaP cells (ATCC CRL-1740) were cultured in RPMI medium. Cells were grown at 37° C. in humidified air with 5% C02 and were harvested using trypsin-ethylenediaminetetraacetic acid.
# (§2) The competitive cell binding assay and internalization experiments were performed according to Eder M et al. (2012), Bioconjug Chem 23(4):688.
# For internalization experiments, 10^5 cells per well were seeded in poly-L-lysine coated 24-well cell culture plates 24 h before incubation. After washing, the cells were incubated with 30 nM of the ^68Ga- or ^177Lu-radiolabeled compound for 45 min at 37° C. and at 4° C., respectively. Cellular uptake was terminated by washing 3 times with 1 mL of ice-cold PBS. To remove surface-bound radioactivity, cells were incubated twice with 0.5 mL glycine-HCl in PBS (50 mM, pH=2.8) for 5 min. The cells were washed with 1 mL of ice-cold PBS and lysed using 0.3 N NaOH (0.5 mL). The surface-bound and the internalized fractions were measured in a gamma counter. The cell uptake was calculated as percent of the initially added radioactivity bound to 10^5 cells [% ID/10^5 cells].
# [3] = molecular target: T1, PSMA (Homo sapiens, UniProt Q04609); assay: competitive cell binding assay vs 68Ga-labeled PSMA-10 on LNCaP cells; details: LNCaP cells, 0.8 nM 68Ga-PSMA-10 radioligand; read-out: Specific Binding Affinity IC50
# T1 construct: host or cells: LNCaP cells
# Description: as §1, §2
# Briefly, the cells (10^5 per well) were incubated with a 0.8 nM solution of ^68Ga-labeled radioligand [Glu-urea-Lys(Ahx)]2-HBED-CC (PSMA-10, precursor ordered from ABX, Radeberg, Germany) in the presence of 12 different concentrations of analyte (0-5000 nM, 100 μL/well). After incubation, the mixture was removed and the wells were washed 3 times with PBS using a multiscreen vacuum manifold (Millipore, Billerica, Mass.). Cell-bound radioactivity was measured using a gamma counter (Packard Cobra II, GMI, Minnesota, USA). The 50% inhibitory concentration (IC50) values were calculated by fitting the data using a nonlinear regression algorithm (GraphPad Software).
# T1 sequence (Q04609 whole entry): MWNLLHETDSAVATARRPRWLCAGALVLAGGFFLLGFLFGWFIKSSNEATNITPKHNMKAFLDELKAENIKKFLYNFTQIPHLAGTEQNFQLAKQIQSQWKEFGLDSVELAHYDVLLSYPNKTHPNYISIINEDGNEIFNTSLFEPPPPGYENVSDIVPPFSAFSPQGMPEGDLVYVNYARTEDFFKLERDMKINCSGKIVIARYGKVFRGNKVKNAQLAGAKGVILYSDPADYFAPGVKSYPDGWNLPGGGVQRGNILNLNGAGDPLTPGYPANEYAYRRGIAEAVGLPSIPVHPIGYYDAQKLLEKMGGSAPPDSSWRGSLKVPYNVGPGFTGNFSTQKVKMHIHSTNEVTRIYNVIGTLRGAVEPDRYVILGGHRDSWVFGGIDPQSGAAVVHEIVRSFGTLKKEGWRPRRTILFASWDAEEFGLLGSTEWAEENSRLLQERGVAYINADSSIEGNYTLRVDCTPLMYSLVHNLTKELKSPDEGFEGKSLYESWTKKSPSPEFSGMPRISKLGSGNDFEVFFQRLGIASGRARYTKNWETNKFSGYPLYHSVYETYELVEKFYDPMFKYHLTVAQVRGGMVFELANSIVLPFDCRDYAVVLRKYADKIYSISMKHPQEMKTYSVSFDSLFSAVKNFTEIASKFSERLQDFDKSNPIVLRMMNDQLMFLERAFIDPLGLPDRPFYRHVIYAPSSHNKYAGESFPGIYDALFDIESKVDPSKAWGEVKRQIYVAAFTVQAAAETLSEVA
structure (smiles),measurement,setting,value
O=C([O-])CC[C@H](NC(=O)N[C@@H](CCCCNC(=O)[C@H](Cc1ccc2ccccc2c1)NC(=O)C1CCC(CNC(=O)CN2CCN(CC(=O)[O-])CCN(CC(=O)[O-])CCN(CC(=O)[O-])CC2)CC1)C(=O)[O-])C(=O)[O-].[225Ac].[H+].[H+].[H+] (stereo partly drawn) [225Ac-PSMA-617],PSA value,[1]; both patients,fell below the detectability limit
same,response of patients,[1]; two patients with extremely advanced and end-stage disease,complete remission
"O=C(O)CC[C@H](NC(=O)N[C@@H](CCCCNC(=O)[C@H](Cc1ccc2ccccc2c1)NC(=O)[C@H](CCC(=O)O)NC(=O)[C@H](CCC(=O)O)NC(=O)[C@H](CCC(=O)O)NC(=O)[C@H]1CC[C@H](CNC(=O)CN2CCN(CC(=O)O)CCN(CC(=O)O)CCN(CC(=O)O)CC2)CC1)C(=O)O)C(=O)O [PS-9, DOTA-CHx-(E)3-2NaI-PSMA] ({DOTA-Trx}-EEE[2Nal]-EuK)",Specific Cell Surface Binding,[2],0.59 ± 0.09 % ID/10^5 cells
same,Specific Internalization,[2],0.27 ± 0.07 % ID/10^5 cells
same,Cell Surface binding,[2]; blocked,0.060 ± 0.021 % ID/10^5 cells
same,Internalization,[2]; blocked,0.138 ± 0.046 % ID/10^5 cells
same,Cell Surface binding,[2]; not blocked,0.650 ± 0.083 % ID/10^5 cells
same,Internalization,[2]; not blocked,0.410 ± 0.090 % ID/10^5 cells
same,IC50,[3],0.0234 ± 0.0097 µM
"O=C(O)CCC(NC(=O)NC(CCCCNC(=O)C(Cc1ccc2ccccc2c1)NC(=O)C1CCC(CNC(=O)CN2CCN(CC(=O)O)CCN(CC(=O)O)CCN(CC(=O)O)CC2)CC1)C(=O)O)C(=O)O (stereo not drawn) [PSMA-617, 2-[3-(1-Carboxy-5-{3-naphthalen-2-yl-2-[(4-{[2-(4,7,10-tris-carboxymethyl-1,4,7,10-tetraaza-cyclododec-1-yl)-acetylamino]-methyl}-cyclohexanecarbonyl)-amino]-propionylamino}-pentyl)-ureido]-pentanedioic acid, reference compound]",Specific Cell Surface Binding,[2],0.72 ± 0.06 % ID/10^5 cells
same,Specific Internalization,[2],0.39 ± 0.06 % ID/10^5 cells
same,Cell Surface binding,[2]; blocked,0.063 ± 0.014 % ID/10^5 cells
same,Internalization,[2]; blocked,0.117 ± 0.032 % ID/10^5 cells
same,Cell Surface binding,[2]; not blocked,0.792 ± 0.134 % ID/10^5 cells
same,Internalization,[2]; not blocked,0.504 ± 0.051 % ID/10^5 cells
same,Specific cell surface bound,"[2]; 177Lu-labeled, LNCaP cells",4.36 ± 1.33 % ID/10^5 cells
same,Specific internalized,"[2]; 177Lu-labeled, LNCaP cells",2.94 ± 0.35 % ID/10^5 cells
same,IC50,[3],0.0218 ± 0.00313 µM
